Assay results reported in patent publication US20110293745A1, “AURORA KINASE INHIBITORS” (SUNESIS PHARMACEUTICALS, INC., priority 2008, published 2011).
Where two headings read alike, the source gives them in different places.

How the values were obtained:
c-Raf = biological target: T1, c-Raf (Homo sapiens, UniProt P04049); assay: Radiometric kinase assay (Upstate panel); assay type: biochemical
T1 construct: purchased Upstate Biotechnology, Dundee, UK

pHH3 in Calu-6 = assay: cells; conditions: Homo sapiens, Calu-6, 1 h, read-out: pHH3 IC50
Protocol: (§1) For analysis of pHH3 on adherent cells (HCT116, A375, and H1299), tumor cells were grown in 96-well tissue culture plates overnight at 37° C. […] Cells were fixed, permeabilized and exposed to anti-pHH3 antibody and analyzed for pHH3 staining. Data were fit to an IC50 equation. For analysis of pHH3 on nonadherent cells or cells with irregular morphology (A2780, Calu-6, and HT-29), tumor cells were seeded in 6-well tissue culture plates overnight at 37° C. […] Cells were trypsinized, collected, lysed, and analyzed by immunoblotting.

pHH3 in A375 = assay: cells; conditions: Homo sapiens, A-375, 1 h, read-out: pHH3 IC50
Protocol: as §1

pHH3 in A2780 = assay: cells; conditions: Homo sapiens, A2780, 1 h, read-out: pHH3 IC50
Protocol: as §1

pHH3 in H1299 = assay: cells; conditions: Homo sapiens, NCI-H1299, 1 h, read-out: pHH3 IC50
Protocol: as §1

[1] = system: MV-4-11 (human acute myeloid leukemia) xenograft; assay: In vivo efficacy, mouse xenograft; conditions: 150 mg/kg IP twice-weekly for 3 weeks
Protocol: The human cell line MV-4-11 (human acute myeloid leukemia) was established as subcutaneous xenografts in nu/nu female mice. Animals were randomized by tumor volume and distributed into groups of ten animals each. Treatments were initiated when tumors averaged about 200 mm^3 in volume. End points for each group were determined based on body weight nadir, adverse clinical observations, or tumor volumes exceeding maximum threshold of 2000 mm^3.
[…]. Responses were assessed by tumor growth inhibition (TGI) and tumor growth delay (TGD). TGI and TGD in the treatment group were evaluated against the vehicle control group.

H1299 = assay: cells; conditions: Homo sapiens, NCI-H1299, 96 h, read-out: BrdU IC50
Protocol: (§2) Cellular proliferation was assessed using the Cell Proliferation ELISA, bromodeoxyuridine (BrdU) kit (Roche) including reagents, according to the kit protocol.

HeLa = assay: cells; conditions: Homo sapiens, 96 h, read-out: BrdU IC50
Protocol: as §2

A2780 = assay: cells; conditions: Homo sapiens, A2780, 96 h, read-out: BrdU IC50
Protocol: as §2

A375 = assay: cells; conditions: Homo sapiens, A-375, 96 h, read-out: BrdU IC50
Protocol: as §2

Calu-6 = assay: cells; conditions: Homo sapiens, Calu-6, 96 h, read-out: BrdU IC50
Protocol: as §2

[2] = system: histone H3 phosphorylation in epidermis; assay: pHH3 immunohistochemistry in mouse skin punches; assay type: in vivo
Protocol: For each study, animals were randomized by tumor volume and distributed into groups of ten animals each. […] Inhibition of histone H3 (HH3) phosphorylation was evaluated in HCT 116 xenograft tumors, mouse femur bone marrow, and mouse skin punch biopsy sections by immunohistochemistry (IHC). […] The tumors were collected 6 hrs post-dose on day 4, 11, 18 and on day 25 (one week after completion of dosing phase of the experiment). Phosphorylated histone H3 (pHH3) was detected by immunohistochemistry staining of tissue sections with the antibody # 9701 (Cell Signaling Technology, Inc.), which recognizes phosphorylation of Ser10 residue in histone H3 protein. […] Three mice in each group were sacrificed on day 4 and day 18, 6 hours post-dose. Skin punches (8 mm) were fixed in formalin, trimmed, and sections stained to identify cells positive for histone H3 phosphorylation.

[3] = system: broad panel of cancer cell lines; assay: cells; conditions: Homo sapiens, 96 h, read-out: anti-proliferative IC50 values
[4] = system: histone H3 phosphorylation in skin biopsies; assay: Clinical pharmacodynamics, skin punch biopsies; assay type: in vivo, human; conditions: Cycle 1, Day 1, 3-7 hours after start of infusion
Protocol: Clinical pharmacodynamic assessments were performed as follows. Skin punch biopsy samples were collected prior to (e.g., just prior to or up to 14 days prior to) treatment and during Cycle 1, Day 1 of treatment at between 3 and 7 hours after the start of the 3-hour infusion. Skin punch biopsy samples were analyzed for inhibition of histone H3 phosphorylation.

[5] = system: H1299 non-small cell lung cancer xenograft; assay: In vivo efficacy, mouse xenograft; conditions: H1299 (NSCLC)
Protocol: Percent TGI is then calculated with the following equation: […]
Time To Endpoint (TTE) was calculated for each individual animal to reach the predetermined study end point where the tumor volume becomes 1200 mm^3 or 10% of body weight or a greater than 20% body weight loss for two sequential measurements. The TTE is calculated and the median value is recorded for the group. Tumor Growth Delay (TGD) is then calculated with the following equation: […]
H1299 non-small cell lung cancer cells [200 μL of a 5×10^7 cells/mL suspension (1:1 DPBS with cells:Matrigel)] were implanted subcutaneously in the right hind flank. After 10 days, when tumors reached an average volume of approximately 100 mm^3, animals were weighed, randomized by tumor volume (l×w×h×0.52), and assigned to the various study groups before initial dosing.

[6] = Rising dose pharmacokinetics (exposure, gender); assay type: in vivo, rats; conditions: for clearance / half-life / Vd: Sprague-Dawley, plasma, iv
Excerpt: Pharmacokinetic parameters were estimated using noncompartmental analysis within WinNonlin v. 4.1. […] For rising dose experiments measuring exposure for each species, sets containing several animals were singly dosed at a given dose.

[7] = Clinical pharmacokinetic evaluation, 3-hour infusion; assay type: in vivo, human
Protocol: Pharmacokinetic (PK) evaluation was performed on Days 1 and 15.

T1 sequence (P04049 whole entry): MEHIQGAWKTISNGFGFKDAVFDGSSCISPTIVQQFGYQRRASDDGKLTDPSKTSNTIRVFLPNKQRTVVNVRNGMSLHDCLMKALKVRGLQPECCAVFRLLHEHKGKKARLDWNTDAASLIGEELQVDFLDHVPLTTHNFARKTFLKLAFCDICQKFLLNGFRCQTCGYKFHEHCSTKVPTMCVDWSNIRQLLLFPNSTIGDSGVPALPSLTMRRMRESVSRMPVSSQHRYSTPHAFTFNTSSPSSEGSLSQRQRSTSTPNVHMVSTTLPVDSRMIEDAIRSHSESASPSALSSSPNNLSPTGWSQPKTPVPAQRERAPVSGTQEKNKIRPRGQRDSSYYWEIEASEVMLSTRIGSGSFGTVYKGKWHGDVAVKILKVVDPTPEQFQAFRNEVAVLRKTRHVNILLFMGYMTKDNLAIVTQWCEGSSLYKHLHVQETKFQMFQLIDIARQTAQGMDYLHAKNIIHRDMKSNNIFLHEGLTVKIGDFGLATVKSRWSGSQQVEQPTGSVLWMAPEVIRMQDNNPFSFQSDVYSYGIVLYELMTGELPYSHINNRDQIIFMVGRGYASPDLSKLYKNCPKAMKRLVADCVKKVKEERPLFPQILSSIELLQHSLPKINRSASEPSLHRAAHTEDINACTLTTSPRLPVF

Work on CS(=O)(=O)O.O=C(Nc1cccc(Cl)c1)Nc1ncc(CCNc2ncnc3ccsc23)s1 [Compound 1, 1-(3-chlorophenyl)-3-{5-[2-(thieno[3,2-d]pyrimidin-4-ylamino)ethyl]thiazo}-urea] yielded an IC50 (c-Raf) of 0.1 µM, an IC50 (pHH3 in Calu-6) of 60 nM and an IC50 (pHH3 in A375) of 15 nM. For the same molecule, the IC50 (pHH3 in A2780) was 150 nM, the IC50 (pHH3 in H1299) was 58 nM and the tumor growth delay [1] was 10 days. For the same molecule, the “Percent tumor growth inhibition (% TGI)” value ([1]; p-value 0.0008) was 75.56%, the IC50 (H1299) was 4 nM and the IC50 (HeLa) was 9.3 nM. It also gave an IC50 (A2780) of 1.8 nM, an IC50 (A375) of 5.9 nM and an IC50 (Calu-6) of 13.3 nM. The “reduction of number of phospho-histone H3 positively stained cells in epidermis versus vehicle” value ([2]; 150 mg/kg biweekly for 3 weeks, day 4 and day 18, 6 hours post-dose) was about 50%, the “number of positively stained cells in epidermis versus vehicle” value ([2]; day 25) was “still decreased” and the IC50 [3] was 2 to 10 nM. The “doses at which inhibition of pHH3 was observed in skin biopsies of patients” value [4] was at least 240 mg/m^2, the “% TGI” value ([5]; 42.5 mg/kg biw × 3) was 0% and the TGD ([5]; 42.5 mg/kg biw × 3) was 0 days. The “% TGI” value ([5]; 85 mg/kg biw × 3) was 17.7%, the TGD ([5]; 85 mg/kg biw × 3) was 0 days and the “% TGI” value ([5]; 170 mg/kg biw × 3) was 69.1%. For the same molecule, the TGD ([5]; 170 mg/kg biw × 3) was 5.7 days.

In the case of O=C(Nc1cccc(Cl)c1)Nc1ncc(CCNc2ncnc3ccsc23)s1 [Compound 2, 1-(3-chlorophenyl)-3-{5-[2-(thieno[3,2-d]pyrimidin-4-ylamino)ethyl]thiazol-2-yl}-urea], the clearance ([6]; 60 mg/m2, rat, 60 mg/m^2) is reported as 17.2 mL/min/kg, the half-life ([6]; 60 mg/m2, rat, 60 mg/m^2) is reported as 1.4 h and the Vd ([6]; 60 mg/m2, rat, 60 mg/m^2, read-out: Vss) is reported as 1.3 L/kg. The clearance ([6]; 300 mg/m2, rat, 300 mg/m^2) was 4 mL/min/kg, the half-life ([6]; 300 mg/m2, rat, 300 mg/m^2) was 1.7 h and the Vd ([6]; 300 mg/m2, rat, 300 mg/m^2, read-out: Vss) was 1.1 L/kg. For the same molecule, the clearance ([6]; 600 mg/m2, rat, 600 mg/m^2) was 2 mL/min/kg, the half-life ([6]; 600 mg/m2, rat, 600 mg/m^2) was 5.9 h and the Vd ([6]; 600 mg/m2, rat, 600 mg/m^2, read-out: Vss) was 1.1 L/kg. For the same molecule, the “dose dependence of systemic exposure (AUC)” value ([6]; most pronounced in rats and mice, lesser extent in dogs) was “non-linear systemic exposure”, the “disposition following repeated administration” value ([7]; first versus third weekly dose) was “no change in Compound 2 disposition” and the half-life ([7]; human, plasma, intravenous, patients, weekly 3-hour infusion, Days 1 and 15, read-out: terminal half-life (converted)) was 7 h. For the same molecule, the clearance ([7]; patients) was “moderate to low”.
